Where two headings read alike, the source gives them in different places. Where only a bound is given, the exact number is not on record here.

The text below walks through data of publication PMC5814210, “2-Amino-3-methylcarboxy-5-heptyl-thiophene (TJ191) is a selective anti-cancer small molecule that targets low TβRIII-expressing malignant T-cell leukemia/lymphoma cells” (Oncotarget, 2017).

The subject of one series is MOLT-4 cells. The experiment in a line: Proliferation assay, MOLT-4 cells. Type of series: cell-based, human. Particulars: three days, cell counting, read-out: IC50 (50% inhibition of cell growth). The protocol:
(§1) PBMCs were isolated from Buffy coats obtained from healthy blood donors (after receiving informed consent) using lymphoprep according to the manufacturer’s instructions. PBMCs were then stimulated with interleukin-2 (2 ng/ml, R&D systems, Abingdon, UK) and phytohemagglutinin (2 µg/ml, Sigma-Aldrich) for three days and used in the experiments described below. Human T-cell leukemia/lymphoma cell lines CCRF-CEM (referred to as CEM), JURKAT, MOLT-3, MOLT-4, SUP-T1, MT-2, MT-4, C8166, HSB-2, and HUT-78 were obtained from ATCC (Middlesex, UK). Cells were cultured in RPMI-1640 medium supplemented with 10% fetal bovine serum (FBS, Gibco, Erembodegem, Belgium) and 2 mM L-glutamine (Gibco). […] After three days, cells were counted using the coulter cell counter (Analis, Belgium). The IC50 value refers to the compound concentration that causes 50% inhibition of cell growth.

A further series relates to MOLT-3 cells. The series is described as follows: Proliferation assay, MOLT-3 cells. It counts as cell-based, human. The note with it: three days, cell counting, read-out: IC50 (50% inhibition of cell growth). As for the experimental part: as §1
A further series deals with C8166 cells. The series is described as follows: Proliferation assay, C8166 cells. Particulars: three days, cell counting, read-out: IC50 (50% inhibition of cell growth). It counts as cell-based, human. As for the experimental part: as §1
For a further series, the system named is HUT-78 cells. The experiment in a line: Proliferation assay, HUT-78 cells. It counts as cell-based, human. As for the experimental part:
as §1

The test system of series [1] is CEM cells. The series is described as follows: Apoptosis assay (caspase-3 activity, NucView substrate) in CEM cells. Type of series: cell-based, human. The note with it: 0.3 µM, 24 h. The protocol: Figure 1 Cytostatic and cytotoxic activity of TJ191 in T-cell leukemia/lymphoma cells (A) Chemical structure of TJ191. (B) Effect of TJ191 on the growth of human T-cell leukemia/lymphoma cell lines. (C) Pro-apoptotic effect of TJ191 in CEM cells. Cells were incubated with TJ191 for 8 h or 24 h and apoptosis was determined based on caspase-3 activity using the NucView […] Caspase-3 substrate, according to the manufacturer’s instruction, and fluorescence microscopy (Axiovert 200 M inverted microscope, Zeiss). Left panel, representative fluorescence microscopy images are shown; scale bars, 50 µm. Right panel, quantification of the apoptosis rate is shown. Bars represent the mean percentage of cells stained positive for caspase-3 of three different sections; bars, ± S.E.M. Data are representative of two independent experiments.
6 × 10^5 CEM cells/well were seeded into 96-well plates and treated with TJ191 in the presence of 2 µM NucView 488 caspase substrate (Biotium, Hayward, CA). When cells undergo apoptosis, the caspase substrate is cleaved by activated caspase-3/7 to release the DNA dye NucView 488, which stains the nucleus with bright green fluorescence. Cells were fixed at indicated times in 2% paraformaldehyde for 10 min at room temperature and analyzed for NucView 488 staining using a Carl Zeiss Axiovert 200 M inverted microscope (Zeiss, Göttingen, Germany).

A further series deals with MT-4 cells. The series is described as follows: Proliferation assay, MT-4 cells. It counts as cell-based, human. The note with it: three days, cell counting, read-out: IC50 (50% inhibition of cell growth). As for the experimental part:
as §1

Another series relates to MT-2 cells. The series is described as follows: Proliferation assay, MT-2 cells. It counts as cell-based, human. Particulars: three days, cell counting, read-out: IC50 (50% inhibition of cell growth). As for the experimental part: as §1
A further series deals with JURKAT cells. The experiment in a line: Proliferation assay, JURKAT cells. It counts as cell-based, human. Particulars: three days, cell counting, read-out: IC50 (50% inhibition of cell growth). As for the experimental part:
as §1

The subject of series [2] is TβRIII KO1 and KO2 HUT-78 cells. The series is described as follows: Proliferation assay, TβRIII knock-out HUT-78 cells (KO1 and KO2). It counts as cell-based, human. The note with it: three days, cell counting. The protocol:
(§2) Human T-cell leukemia/lymphoma and prostate cancer cell lines were seeded into 96-well plates at a density of 60 × 10^3 and 20 × 10^3 cells/well respectively, and treated with 5-fold dilutions of TJ191, cladribine, 6-MP, ara-C, 6-TG, adriamycine or endoxan. 200 × 10^3 PBMCs/well were seeded and treated as indicated above. After three days, cells were counted using the coulter cell counter (Analis, Belgium). The IC50 value refers to the compound concentration that causes 50% inhibition of cell growth.

Another series concerns CEM-R cells. The experiment in a line: Proliferation assay, TJ191-selected resistant CEM cells (CEM-R). Type of series: cell-based, human. The note with it: selected one month at 100-fold IC50 concentration of TJ191; three days growth. As for the experimental part:
as §2

The subject of another series is SUP-T1 cells. The series is described as follows: Proliferation assay, SUP-T1 cells. Type of series: cell-based, human. Particulars: three days, cell counting, read-out: IC50 (50% inhibition of cell growth). As for the experimental part:
as §1

Series [3] relates to CEM cells. The experiment in a line: Proliferation assay, CEM cells. It counts as cell-based, human. The note with it: three days, cell counting, read-out: IC50 (50% inhibition of cell growth). As for the experimental part: as §1
The subject of the next series is HSB-2 cells. The series is described as follows: Proliferation assay, HSB-2 cells. Type of series: cell-based, human. Particulars: three days, cell counting, read-out: IC50 (50% inhibition of cell growth). The protocol:
as §1

Series [4] relates to PBMCs. Details: method as in PMID 28365318. Particulars: read-out: IC50, growth of PBMCs; cited from earlier work.
The test system of series [5] is primary human fibroblasts. Details: method as in PMID 28365318. Particulars: read-out: IC50, growth of primary human fibroblasts; cited from earlier work.
In a further series the test system is tumor cell lines. Details: method as in PMID 28365318. Particulars: cited from earlier work.
A further series in a line: Water solubility. Type of series: physicochemical. The note with it: precludes in vivo testing.
The test system of series [6] is PBMCs. The experiment in a line: Proliferation assay, PBMCs. The note with it: PBMCs stimulated with IL-2 and phytohemagglutinin, three days, cell counting, read-out: IC50 (50% inhibition of cell growth). Type of series: cell-based, human. As for the experimental part:
PBMCs were isolated from Buffy coats obtained from healthy blood donors (after receiving informed consent) using lymphoprep according to the manufacturer’s instructions. PBMCs were then stimulated with interleukin-2 (2 ng/ml, R&D systems, Abingdon, UK) and phytohemagglutinin (2 µg/ml, Sigma-Aldrich) for three days and used in the experiments described below. Human T-cell leukemia/lymphoma cell lines CCRF-CEM (referred to as CEM), JURKAT, MOLT-3, MOLT-4, SUP-T1, MT-2, MT-4, C8166, HSB-2, and HUT-78 were obtained from ATCC (Middlesex, UK). Cells were cultured in RPMI-1640 medium supplemented with 10% fetal bovine serum (FBS, Gibco, Erembodegem, Belgium) and 2 mM L-glutamine (Gibco).
as §2

As to “2-amino-3-methylcarboxy-5-heptyl-thiophene [TJ191]”, the IC50 in the series on MOLT-4 cells worked out at 220 ± 110 nM; in the series on MOLT-3 cells, 260 ± 190 nM; in the series with C8166 cells it was 3100 ± 500 nM; in the series on HUT-78 cells (HUT-78 cells (parental), three days, cell counting, read-out: IC50 (50% inhibition of cell growth)) it was 17000 ± 10000 nM; with MT-4 cells, 47000 ± 5000 nM; with MT-2 cells it was 320 ± 86 nM. Also, the concentration for half-maximal inhibition (IC50) in the series with JURKAT cells is 130 ± 80 nM; in the series on SUP-T1 cells it was 1500 ± 20 nM; in the series on CEM cells [3] it was 130 ± 20 nM; with HSB-2 cells, 260 ± 160 nM; in the series on PBMCs [4], more than 100000 nM; in [5], more than 100000 nM. For the same compound, the half-maximal inhibitory concentration (IC50) in the series on tumor cell lines (drug-insensitive tumor cell lines, read-out: IC50 in drug-insensitive tumor cell lines) was approximately 60000 nM; in the series with tumor cell lines (drug-sensitive tumor cell lines, read-out: IC50 in drug-sensitive tumor cell lines) it was approximately 100 nM. In the series with HUT-78 cells (ratio of IC50 HUT-78 to IC50 CEM), the “Fold less sensitive, parental HUT-78 versus CEM cells” value is on record as 130 fold. Moreover, the “Maximum apoptotic rate (cells positive for caspase-3)” value with CEM cells [1] is recorded as approximately 80%. For the same compound, the “Change of IC50 in TβRIII KO1 and KO2 cells compared with parental or scrambled control HUT-78 cells” value in [2] is given as “reduced at least four- to five-fold”. Further, the “Reduced sensitivity of CEM-R compared with wild-type CEM” value in the series on CEM-R cells is approximately 100 fold. For the same compound, in the series “Water solubility”, the Water solubility result is “relative water insolubility”.
As to `Nc1nc2nc[nH]c2c(=S)[nH]1` [6-TG, 6-thioguanine], in the series with PBMCs [6] (Homo sapiens, PBMC, 72 h), the 50% inhibitory concentration (IC50) is 570 ± 270 nM.
`COc1cccc2c1C(=O)c1c(O)c3c(c(O)c1C2=O)C[C@@](O)(C(=O)CO)C[C@@H]3O[C@H]1C[C@H](N)[C@H](O)[C@H](C)O1` [adriamycine]: the 50% inhibitory concentration (IC50) in the series on PBMCs [6] is 79 ± 62 nM.
Regarding `Nc1ccn([C@@H]2O[C@H](CO)[C@@H](O)[C@@H]2O)c(=O)n1` [ara-C, 1-β-D-arabinofuranosyl cytosine], in the series with PBMCs [6] (Homo sapiens, PBMC, 72 h), the concentration for half-maximal inhibition (IC50) came out at 880 ± 600 nM.
Regarding `Nc1nc(Cl)nc2c1ncn2[C@H]1C[C@H](O)[C@@H](CO)O1` [cladribine, Cladribine], in the series on PBMCs [6] (Homo sapiens, PBMC, 72 h), the IC50 worked out at 180 ± 90 nM.
In the case of `O=P1(N(CCCl)CCCl)NCCCO1` (stereo not drawn) [endoxan, cyclophosphamide, reference compound], in [2], the “Change of IC50 in TβRIII KO1 and KO2 cells compared with parental or scrambled control HUT-78 cells” value is on record as “no significant difference”.

The term IC50 denotes the concentration needed to halve the response being measured.
